# Assay results taken from patent US20250262201A1, “COMPOUNDS AND METHODS USEFUL FOR STABILIZING PHENYLALANINE HYDROXYLASE MUTATIONS” (Agios Pharmaceuticals, Inc., priority 2022, published 2025).
# Target: T1, human PAH with the R408W mutation (Homo sapiens, UniProt P00439, R408W)
# T1 construct: expressed in transfected cells
# T1 sequence (P00439 1-452 R408W): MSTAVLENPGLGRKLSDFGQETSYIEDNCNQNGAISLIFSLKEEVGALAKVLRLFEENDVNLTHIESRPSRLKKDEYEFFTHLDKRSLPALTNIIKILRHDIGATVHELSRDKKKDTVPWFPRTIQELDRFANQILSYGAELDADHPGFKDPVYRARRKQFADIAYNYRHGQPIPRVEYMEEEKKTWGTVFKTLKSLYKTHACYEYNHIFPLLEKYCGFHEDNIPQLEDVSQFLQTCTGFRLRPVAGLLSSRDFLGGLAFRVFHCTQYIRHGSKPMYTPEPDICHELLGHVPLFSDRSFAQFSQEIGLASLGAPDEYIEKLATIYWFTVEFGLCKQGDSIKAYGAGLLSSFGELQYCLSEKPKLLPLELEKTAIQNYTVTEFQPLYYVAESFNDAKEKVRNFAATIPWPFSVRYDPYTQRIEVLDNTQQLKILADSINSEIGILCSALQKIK
# Experiment: Cell Based Phenylalanine Flux Assay
# Details: A375 cells expressing human R408W PAH; 24 hrs compound incubation; 13C-Tyrosine by LC-MS; average where tested multiple times; read-out: AC50
row,SMILES,AC50 [nM]
1,"O=C(c1nnc(-c2ccc(F)c(F)c2)o1)N1CCc2[nH]cnc2C1c1ccc2ccccc2n1 (stereo in doubt) [Example 69, (R)-(5-(3,4-difluorophenyl)-1,3,4-oxadiazol-2-yl)(4-(quinolin-2-yl)-6,7-dihydro-1H-imidazo[4,5-c]pyridin-5(4H)-yl)methanone]",500 to 1000
2,"O=C(c1nnc(-c2ccc(F)c(F)c2)o1)N1CCc2[nH]cnc2C1c1ccc2ccccc2n1 (stereo in doubt) [Example 70, (S)-(5-(3,4-difluorophenyl)-1,3,4-oxadiazol-2-yl)(4-(quinolin-2-yl)-6,7-dihydro-1H-imidazo[4,5-c]pyridin-5(4H)-yl)methanone]",> 5000
3,"O=C(c1oc(C2CC(F)(F)C2)nc1C(F)F)N1CCc2[nH]cnc2C1c1ccc2ccccc2n1 (stereo in doubt) [Example 71, (R)-(2-(3,3-difluorocyclobutyl)-4-(difluoromethyl)oxazol-5-yl)(4-(quinolin-2-yl)-6,7-dihydro-1H-imidazo[4,5-c]pyridin-5(4H)-yl)methanone]",< 500
4,"O=C(c1oc(C2CC(F)(F)C2)nc1C(F)F)N1CCc2[nH]cnc2C1c1ccc2ccccc2n1 (stereo in doubt) [Example 72, (S)-(2-(3,3-difluorocyclobutyl)-4-(difluoromethyl)oxazol-5-yl)(4-(quinolin-2-yl)-6,7-dihydro-1H-imidazo[4,5-c]pyridin-5(4H)-yl)methanone]",1000 to 5000
5,"Cn1nc(C(F)F)cc1C(=O)N1CCc2[nH]cnc2C1c1ccc2ccccc2n1 (stereo in doubt) [Example 73, (R)-(3-(difluoromethyl)-1-methyl-1H-pyrazol-5-yl)(4-(quinolin-2-yl)-6,7-dihydro-1H-imidazo[4,5-c]pyridin-5(4H)-yl)methanone]",500 to 1000
6,"Cn1nc(C(F)F)cc1C(=O)N1CCc2[nH]cnc2C1c1ccc2ccccc2n1 (stereo in doubt) [Example 74, (S)-(3-(difluoromethyl)-1-methyl-1H-pyrazol-5-yl)(4-(quinolin-2-yl)-6,7-dihydro-1H-imidazo[4,5-c]pyridin-5(4H)-yl)methanone]",1000 to 5000
7,"O=C(c1nnc(-c2ccc(F)cc2F)o1)N1CCc2[nH]cnc2C1c1ccc2ccccc2n1 (stereo in doubt) [Example 75, (R)-(5-(2,4-difluorophenyl)-1,3,4-oxadiazol-2-yl)(4-(quinolin-2-yl)-6,7-dihydro-1H-imidazo[4,5-c]pyridin-5(4H)-yl)methanone]",500 to 1000
8,"O=C(c1nnc(-c2ccc(F)cc2F)o1)N1CCc2[nH]cnc2C1c1ccc2ccccc2n1 (stereo in doubt) [Example 76, (S)-(5-(2,4-difluorophenyl)-1,3,4-oxadiazol-2-yl)(4-(quinolin-2-yl)-6,7-dihydro-1H-imidazo[4,5-c]pyridin-5(4H)-yl)methanone]",> 5000
9,"COCc1nc(C(F)F)c(C(=O)N2CCc3[nH]cnc3C2c2ccc3ccccc3n2)o1 (stereo in doubt) [Example 77, (R)-(4-(difluoromethyl)-2-(methoxymethyl)oxazol-5-yl)(4-(quinolin-2-yl)-6,7-dihydro-1H-imidazo[4,5-c]pyridin-5(4H)-yl)methanone]",< 500
10,"COCc1nc(C(F)F)c(C(=O)N2CCc3[nH]cnc3C2c2ccc3ccccc3n2)o1 (stereo in doubt) [Example 78, (S)-(4-(difluoromethyl)-2-(methoxymethyl)oxazol-5-yl)(4-(quinolin-2-yl)-6,7-dihydro-1H-imidazo[4,5-c]pyridin-5(4H)-yl)methanone]",< 500
11,"Cn1ncnc1C(=O)N1CCc2[nH]cnc2C1c1ccc2ccccc2n1 (stereo in doubt) [Example 80, (2-methyl-1,2,4-triazol-3-yl)-[(4R)-4-(2-quinolyl)-1,4,6,7-tetrahydroimidazo[4,5-c]pyridin-5-yl]methanone]",500 to 1000
12,"O=C(c1ccnn1C(F)F)N1CCc2[nH]cnc2C1c1ccc2ccccc2n1 (stereo in doubt) [Example 81, (R)-(1-(difluoromethyl)-1H-pyrazol-5-yl)(4-(quinolin-2-yl)-6,7-dihydro-1H-imidazo[4,5-c]pyridin-5(4H)-yl)methanone]",< 500
13,"O=C(c1ccnn1C(F)F)N1CCc2[nH]cnc2C1c1ccc2ccccc2n1 (stereo in doubt) [Example 82, (S)-(1-(difluoromethyl)-1H-pyrazol-5-yl)(4-(quinolin-2-yl)-6,7-dihydro-1H-imidazo[4,5-c]pyridin-5(4H)-yl)methanone]",> 5000
14,"Cn1cc(C(=O)N2CCc3[nH]cnc3C2c2ccc3ccccc3n2)c(C(F)F)n1 (stereo in doubt) [Example 83, (R)-(3-(difluoromethyl)-1-methyl-1H-pyrazol-4-yl)(4-(quinolin-2-yl)-6,7-dihydro-1H-imidazo[4,5-c]pyridin-5(4H)-yl)methanone]",< 500
15,"Cn1cc(C(=O)N2CCc3[nH]cnc3C2c2ccc3ccccc3n2)c(C(F)F)n1 (stereo in doubt) [Example 84, (S)-(3-(difluoromethyl)-1-methyl-1H-pyrazol-4-yl)(4-(quinolin-2-yl)-6,7-dihydro-1H-imidazo[4,5-c]pyridin-5(4H)-yl)methanone]",1000 to 5000
16,"Cn1ccc(-c2nnc(C(=O)N3CCc4[nH]cnc4C3c3ccc4ccccc4n3)o2)n1 (stereo in doubt) [Example 85, (R)-(5-(1-methyl-1H-pyrazol-3-yl)-1,3,4-oxadiazol-2-yl)(4-(quinolin-2-yl)-6,7-dihydro-1H-imidazo[4,5-c]pyridin-5(4H)-yl)methanone]",< 500
17,"Cn1ccc(-c2nnc(C(=O)N3CCc4[nH]cnc4C3c3ccc4ccccc4n3)o2)n1 (stereo in doubt) [Example 86, (S)-(5-(1-methyl-1H-pyrazol-3-yl)-1,3,4-oxadiazol-2-yl)(4-(quinolin-2-yl)-6,7-dihydro-1H-imidazo[4,5-c]pyridin-5(4H)-yl)methanone]",1000 to 5000
18,"Cn1cc(C(=O)N2CCc3[nH]cnc3C2c2ccc3ccccc3n2)c(Cl)n1 (stereo in doubt) [Example 88, (R)-(3-chloro-1-methyl-1H-pyrazol-4-yl)(4-(quinolin-2-yl)-6,7-dihydro-1H-imidazo[4,5-c]pyridin-5(4H)-yl)methanone]",< 500
19,"O=C(c1nnc(-c2ncccc2F)o1)N1CCc2[nH]cnc2C1c1ccc2ccccc2n1 (stereo in doubt) [Example 89, (R)-(5-(3-fluoropyridin-2-yl)-1,3,4-oxadiazol-2-yl)(4-(quinolin-2-yl)-6,7-dihydro-1H-imidazo[4,5-c]pyridin-5(4H)-yl)methanone]",< 500
20,"O=C(c1nnc(-c2ncccc2F)o1)N1CCc2[nH]cnc2C1c1ccc2ccccc2n1 (stereo in doubt) [Example 90, (S)-(5-(3-fluoropyridin-2-yl)-1,3,4-oxadiazol-2-yl)(4-(quinolin-2-yl)-6,7-dihydro-1H-imidazo[4,5-c]pyridin-5(4H)-yl)methanone]",1000 to 5000
21,"CC(C)(O)c1nc(C(F)F)c(C(=O)N2CCc3[nH]cnc3C2c2ccc3ccccc3n2)o1 (stereo in doubt) [Example 91, (R)-(4-(difluoromethyl)-2-(2-hydroxypropan-2-yl)oxazol-5-yl)(4-(quinolin-2-yl)-6,7-dihydro-1H-imidazo[4,5-c]pyridin-5(4H)-yl)methanone]",< 500
22,"CC(C)(O)c1nc(C(F)F)c(C(=O)N2CCc3[nH]cnc3C2c2ccc3ccccc3n2)o1 (stereo in doubt) [Example 92, (S)-(4-(difluoromethyl)-2-(2-hydroxypropan-2-yl)oxazol-5-yl)(4-(quinolin-2-yl)-6,7-dihydro-1H-imidazo[4,5-c]pyridin-5(4H)-yl)methanone]",1000 to 5000
23,"Cn1nccc1C(=O)N1CCc2[nH]cnc2C1c1ccc2ccccc2n1 (stereo in doubt) [Example 93, (R)-(1-methyl-1H-pyrazol-5-yl)(4-(quinolin-2-yl)-6,7-dihydro-1H-imidazo[4,5-c]pyridin-5(4H)-yl)methanone]",< 500
24,"Cn1nccc1C(=O)N1CCc2[nH]cnc2C1c1ccc2ccccc2n1 (stereo in doubt) [Example 94, (S)-(1-methyl-1H-pyrazol-5-yl)(4-(quinolin-2-yl)-6,7-dihydro-1H-imidazo[4,5-c]pyridin-5(4H)-yl)methanone]",1000 to 5000
25,"O=C(c1nnc(-c2ccn(C(F)F)n2)o1)N1CCc2[nH]cnc2C1c1ccc2ccccc2n1 (stereo in doubt) [Example 95, (S)-(5-(1-(difluoromethyl)-1H-pyrazol-3-yl)-1,3,4-oxadiazol-2-yl)(4-(quinolin-2-yl)-6,7-dihydro-1H-imidazo[4,5-c]pyridin-5(4H)-yl)methanone]",1000 to 5000
26,"CC(C)(O)c1nc(Br)c(C(=O)N2CCc3[nH]cnc3C2c2ccc3ccccc3n2)o1 (stereo in doubt) [Example 97, (R)-(4-bromo-2-(2-hydroxypropan-2-yl)oxazol-5-yl)(4-(quinolin-2-yl)-6,7-dihydro-1H-imidazo[4,5-c]pyridin-5(4H)-yl)methanone]",< 500
27,"CC(C)(O)c1nc(Br)c(C(=O)N2CCc3[nH]cnc3C2c2ccc3ccccc3n2)o1 (stereo in doubt) [Example 98, (S)-(4-bromo-2-(2-hydroxypropan-2-yl)oxazol-5-yl)(4-(quinolin-2-yl)-6,7-dihydro-1H-imidazo[4,5-c]pyridin-5(4H)-yl)methanone]",1000 to 5000
